Our source for the carcinogen call and TD50 values is PubChem BioAssay AID1745844 (Carcinogenic Potency Database (CPDB), 2022).

“And” between values parts separate entries of the source, which are not always exact repeats. Equal values may be shown once. The source made the active and inactive calls. No rule for the calls is given here.

This data set concerns rodent lifetime carcinogenesis bioassay, tumor incidence TD50. Nature of the data set: chronic cancer bioassays in animals – CPDB, compiled studies (AID 1745844).

One may read the TD50 as the 50% point of the dose-response relation for the toxic effect studied. As for `O=c1c(O)c(-c2ccc(O)c(O)c2)oc2cc(O)cc(O)c12`, the carcinogen call is “negative (inactive)” (hamster, strain Syrian Golden, females, in feed, site: forestomach, lesion: papilloma, dosed 50 weeks, study length 100 weeks); “negative (inactive)” (hamster, strain Syrian Golden, females, in feed, site: forestomach, lesion: papilloma, dosed 104 weeks, study length 104 weeks); “negative (inactive)” (hamster, strain Syrian Golden, males, in feed, site: adrenal gland, lesion: cortical adenoma, dosed 101 weeks, study length 101 weeks); “negative (inactive)” (hamster, strain Syrian Golden, males, in feed, site: adrenal gland, lesion: cortical adenoma, dosed 104 weeks, study length 104 weeks); “negative (inactive)” (hamster, strain Syrian Golden, males, in feed, site: forestomach, lesion: papilloma, dosed 101 weeks, study length 101 weeks); “negative (inactive)” (mouse, strain DDY, females, in feed, site: liver, lesion: one or several types, types not named, dosed 120 weeks, study length 120 weeks). Moreover, the carcinogen call was “negative (inactive)” (rat, strain ACI, females, in feed, site: adrenal gland, lesion: cortical adenoma, dosed 77 weeks, study length 77 weeks); “negative (inactive)” (rat, strain ACI, females, in feed, site: pituitary gland, lesion: adenoma, dosed 77 weeks, study length 77 weeks); “negative (inactive)” (rat, strain F344/DuCrj, females, in feed, site: liver, lesion: hyperplastic nodule, dosed 104 weeks, study length 112 weeks); “negative (inactive)” (rat, strain Fischer 344, females, in feed, site: any site (literature study), lesion: several types, types named in the paper, dosed 64 weeks, study length 64 weeks); “negative (inactive)” (rat, strain Fischer 344, males, in feed, site: any site (literature study), lesion: several types, types named in the paper, dosed 64 weeks, study length 64 weeks); “negative (inactive)” (rat, strain Fischer 344, males, in feed, site: any site (literature study), lesion: several types, types named in the paper, dosed 77 weeks, study length 77 weeks). Moreover, where the note is “rat, strain Norwegian albino, males, in feed, site: ileum, lesion: several types, types named in the paper, dosed 58 weeks, study length 58 weeks”, the carcinogen call is “positive”. Further, the TD50 was 18900 mg/kg/day (inactive) (hamster, strain Syrian Golden, females, in feed, site: forestomach, lesion: papilloma, dosed 101 weeks, study length 101 weeks); 140000 mg/kg/day (inactive) (hamster, strain Syrian Golden, females, in feed, site: ileum, lesion: adenocarcinoma, dosed 104 weeks, study length 104 weeks); 39200 mg/kg/day (inactive) (hamster, strain Syrian Golden, females, in feed, site: uterus, lesion: leiomyoma, dosed 101 weeks, study length 101 weeks); 1440 mg/kg/day (inactive) (hamster, strain Syrian Golden, males, in feed, site: forestomach, lesion: papilloma, dosed 50 weeks, study length 100 weeks); 56700 mg/kg/day (inactive) (hamster, strain Syrian Golden, males, in feed, site: forestomach, lesion: papilloma, dosed 104 weeks, study length 104 weeks); 4240 mg/kg/day (inactive) (mouse, strain DDY, females, in feed, site: lung, lesion: several types, types named in the paper, dosed 120 weeks, study length 120 weeks). Moreover, the TD50 is 73400 mg/kg/day (inactive) (mouse, strain DDY, males, in feed, site: heart, lesion: spindle-cell sarcoma, dosed 115 weeks, study length 115 weeks); 15100 mg/kg/day (inactive) (mouse, strain DDY, males, in feed, site: liver, lesion: several types, types named in the paper, dosed 115 weeks, study length 115 weeks); 5460 mg/kg/day (inactive) (mouse, strain DDY, males, in feed, site: lung, lesion: several types, types named in the paper, dosed 115 weeks, study length 115 weeks); 226000 mg/kg/day (inactive) (rat, strain ACI, females, in feed, site: adrenal gland, lesion: cortical adenoma, dosed 121 weeks, study length 121 weeks); 461000 mg/kg/day (inactive) (rat, strain ACI, females, in feed, site: pituitary gland, lesion: adenoma, dosed 121 weeks, study length 121 weeks); 90400 mg/kg/day (inactive) (rat, strain ACI, females, in feed, site: thigh, lesion: sarcoma, dosed 121 weeks, study length 121 weeks). Further, the TD50 runs as follows: (rat, strain ACI, males, in feed, site: adrenal gland, lesion: pheochromocytoma, dosed 77 weeks, study length 77 weeks) 7130 mg/kg/day (inactive); (rat, strain ACI, males, in feed, site: cecum, lesion: adenocarcinoma, dosed 121 weeks, study length 121 weeks) 35200 mg/kg/day (inactive); (rat, strain ACI, males, in feed, site: cecum, lesion: adenoma, dosed 77 weeks, study length 77 weeks) 7130 mg/kg/day (inactive); (rat, strain ACI, males, in feed, site: cecum, lesion: adenoma, dosed 121 weeks, study length 121 weeks) 72300 mg/kg/day (inactive); (rat, strain ACI, males, in feed, site: pancreas, lesion: exocrine adenoma, dosed 121 weeks, study length 121 weeks) 72300 mg/kg/day (inactive); (rat, strain ACI, males, in feed, site: testis, lesion: interstitial-cell tumor, dosed 77 weeks, study length 77 weeks) 2290 mg/kg/day (inactive). The TD50 is, setting by setting: (rat, strain F344/DuCrj, females, in feed, site: all sites, lesion: lymphoma and leukemia, combined, dosed 104 weeks, study length 112 weeks) 7860 mg/kg/day (inactive); (rat, strain F344/DuCrj, females, in feed, site: uterus, lesion: endometrial stromal polyp, dosed 104 weeks, study length 112 weeks) 19300 mg/kg/day (inactive); (rat, strain F344/DuCrj, males, in feed, site: all sites, lesion: lymphoma and leukemia, combined, dosed 104 weeks, study length 112 weeks) 1160 mg/kg/day (inactive); (rat, strain F344/DuCrj, males, in feed, site: liver, lesion: hyperplastic nodule, dosed 104 weeks, study length 112 weeks) 66800 mg/kg/day (inactive); (rat, strain Fischer 344, females, in feed, site: adrenal gland, lesion: cortical adenoma, dosed 77 weeks, study length 77 weeks) 118 mg/kg/day (inactive); (rat, strain Fischer 344, females, in feed, site: liver, lesion: hepatocellular adenoma + hepatocellular carcinoma + neoplastic nodule, dosed 103 weeks, study length 103 weeks) 75700 mg/kg/day. For the same molecule, the TD50 is, setting by setting: (rat, strain Fischer 344, females, in feed, site: tongue, lesion: squamous-cell carcinoma, dosed 103 weeks, study length 103 weeks) 36500 mg/kg/day (inactive); (rat, strain Fischer 344, males, in feed, site: kidney, lesion: tubule adenoma + tubular-cell adenocarcinoma, dosed 103 weeks, study length 103 weeks) 8990 mg/kg/day and 5250 mg/kg/day; (rat, strain Fischer 344, males, in feed, site: kidney, lesion: tubule adenoma, dosed 103 weeks, study length 103 weeks) 12500 mg/kg/day and 6030 mg/kg/day; (rat, strain Norwegian albino, females, in feed, site: ileum, lesion: adenocarcinoma, dosed 58 weeks, study length 58 weeks) 15.4 mg/kg/day; (rat, strain Norwegian albino, females, in feed, site: ileum, lesion: several types, types named in the paper, dosed 58 weeks, study length 58 weeks) 5.12 mg/kg/day; (rat, strain Norwegian albino, females, in feed, site: urinary bladder, lesion: several types, types named in the paper, dosed 58 weeks, study length 58 weeks) 51.3 mg/kg/day. Moreover, the TD50 (rat, strain Norwegian albino, males, in feed, site: urinary bladder, lesion: transitional-cell carcinoma, dosed 58 weeks, study length 58 weeks) is 21 mg/kg/day.
Consider `OCCN(CCO)C(=S)S`, for which the TD50 by setting is: (mouse, strain B6AKF1, females, oral dosing, site: any site (literature study), lesion: several types, types named in the paper, dosed 79 weeks, study length 79 weeks) 138 mg/kg/day; (mouse, strain B6AKF1, females, oral dosing, site: liver, lesion: hepatoma, dosed 79 weeks, study length 79 weeks) 298 mg/kg/day; (mouse, strain B6AKF1, females, oral dosing, site: lung, lesion: adenoma, dosed 79 weeks, study length 79 weeks) 850 mg/kg/day; (mouse, strain B6AKF1, males, oral dosing, site: any site (literature study), lesion: several types, types named in the paper, dosed 79 weeks, study length 79 weeks) 45.6 mg/kg/day; (mouse, strain B6AKF1, males, oral dosing, site: liver, lesion: hepatoma, dosed 79 weeks, study length 79 weeks) 41.5 mg/kg/day; (mouse, strain B6C3F1, females, oral dosing, site: any site (literature study), lesion: several types, types named in the paper, dosed 79 weeks, study length 79 weeks) 48.4 mg/kg/day. The TD50 was 56.4 mg/kg/day (mouse, strain B6C3F1, females, oral dosing, site: liver, lesion: hepatoma, dosed 79 weeks, study length 79 weeks); 1080 mg/kg/day (mouse, strain B6C3F1, females, oral dosing, site: lung, lesion: adenoma, dosed 79 weeks, study length 79 weeks); 27.8 mg/kg/day (mouse, strain B6C3F1, males, oral dosing, site: any site (literature study), lesion: several types, types named in the paper, dosed 79 weeks, study length 79 weeks); 34.5 mg/kg/day (mouse, strain B6C3F1, males, oral dosing, site: liver, lesion: hepatoma, dosed 79 weeks, study length 79 weeks).
For `Nc1ccc(O)c(N)c1`, the carcinogen call (mouse, strain B6C3F1, females, by gavage, site: any site (literature study), lesion: several types, types named in the paper, dosed 103 weeks, study length 104 weeks) was “negative (inactive)”. In addition, the TD50 reads like this: (mouse, strain B6C3F1, females, by gavage, site: liver, lesion: hepatocellular adenoma + hepatocellular carcinoma + neoplastic nodule, dosed 103 weeks, study length 104 weeks) 2890 mg/kg/day; (mouse, strain B6C3F1, females, by gavage, site: lung, lesion: alveolar/bronchiolar adenoma + alveolar/bronchiolar carcinoma, dosed 103 weeks, study length 104 weeks) 239 mg/kg/day; (mouse, strain B6C3F1, males, by gavage, site: kidney, lesion: tubule adenoma, dosed 103 weeks, study length 104 weeks) 320 mg/kg/day and 143 mg/kg/day; (mouse, strain B6C3F1, males, by gavage, site: liver, lesion: hepatocellular adenoma + hepatocellular carcinoma + neoplastic nodule, dosed 103 weeks, study length 104 weeks) 164 mg/kg/day; (mouse, strain B6C3F1, males, by gavage, site: lung, lesion: alveolar/bronchiolar adenoma + alveolar/bronchiolar carcinoma, dosed 103 weeks, study length 104 weeks) 194 mg/kg/day; (rat, strain Fischer 344, females, by gavage, site: any site (literature study), lesion: several types, types named in the paper, dosed 103 weeks, study length 104 weeks) 46.3 mg/kg/day (inactive). In addition, the TD50 (rat, strain Fischer 344, males, by gavage, site: any site (literature study), lesion: several types, types named in the paper, dosed 103 weeks, study length 104 weeks) is 543 mg/kg/day (inactive).
Take `CNC[C@H](O)c1ccc(O)c(O)c1`: the TD50 stood at 9.74 mg/kg/day (mouse, strain B6C3F1, females, inhaled, site: liver, lesion: hepatocellular adenoma + hepatocellular carcinoma + neoplastic nodule, dosed 104 weeks, study length 107 weeks); 6.86 mg/kg/day (mouse, strain B6C3F1, females, inhaled, site: uterus, lesion: endometrial stromal polyp + endometrial stromal sarcoma, dosed 104 weeks, study length 107 weeks); 8.52 mg/kg/day (mouse, strain B6C3F1, females, inhaled, site: uterus, lesion: endometrial stromal polyp, dosed 104 weeks, study length 107 weeks); 4.7 mg/kg/day (rat, strain Fischer 344, males, inhaled, site: any site (literature study), lesion: several types, types named in the paper, dosed 103 weeks, study length 105 weeks).
